Test results reported in patent publication US9850257B2, “Tricyclic heterocycles as BET protein inhibitors” (Incyte Corporation, priority 2013, dated 2017).
Structures can show the parent of a compound that is named as a salt.

Assays:
[1] = test system: KMS.12.BM cell line (human myeloma); assay: KMS.12.BM cell viability assay; format: cell-based; conditions: 72 h, KMS.12.BM cells, 3 days, Cell Titer-GLO ATP quantitation, read-out: KMS cellular IC50
Experimental: KMS.12.BM Cell Viability Assay
KMS.12.BM cell line (human myeloma) was purchased from JCRB (Osaka, Japan) and maintained in RPMI with 10% FBS culture medium. To measure the cytotoxic activity of the compounds through ATP quantitation, the KMS. 12.BM cells are plated in the RPMI culture medium at 5000 cells/well/per 100 μL into a 96-well polystyrene clear black tissue culture plate (Greiner-bio-one through VWR, NJ), in the presence or absence of a concentration range of test compounds. After 3 days, […] Cell Titer-GLO Luminescent (Promega, Madison, Wis.) cell culture agent is added to each well for 10 minutes at room temperature to stabilize the luminescent signal. This determines the number of viable cells in culture based on quantitation of the ATP present, which signals the presence of metabolically active cells. Luminescence is measured with the Top Count 384 (Packard Bioscience through Perkin Elmer, Boston, Mass.). Compound inhibition is determined relative to cells cultured with no drug and the IC50 reported as the compound concentration required for 50% cell death.

BRD4-BD1 = BRD4-BD1 (Homo sapiens (Human), UniProt O60885); assay: BRD4 AlphaScreen assay (BD1); format: binding; conditions: biotin-labeled tetra-acetylated histone H4 peptide, 3.8 nM BRD4-BD1, read-out: BRD4 BD-1 enzyme IC50
Experimental: (§1) BRD4-BD1 and BRD4-BD2 assays were conducted in white 384-well polystyrene plate in a final volume of 20 μL for BD1 and 40 μL for BD2. Inhibitors were first serially diluted in DMSO and added to the plate wells before the addition of other reaction components. The final concentration of DMSO in the assay was 1.25% (BD1) and 0.83% (BD2). The assays were carried out at room temperature for 75 min. in the assay buffer (50 mM HEPES, pH 7.4, 100 mM NaCl, 0.05% CHAPS, 0.01% BSA), containing 50 nM Biotin-labeled tetra-acetylated histone H4 peptide (H4Ac4), 3.8 nM (BRD4-BD1, BPS Bioscience #31040) or 20 nM (BRD4-BD2, BPS Bioscience #31041). The reaction followed by the addition of 20 μL of assay buffer supplemented with Streptavidin donor beads (PerkinElmer 6760002) and GSH Acceptor beads (PerkinElmer-AL109C) at 4 jag/mL under reduced light. After plate sealing, the plate was incubated in the dark at room temperature for 75 min. before reading on a PHERAstar FS plate reader (BMG Labtech). IC50 determination was performed by fitting the curve of percent control activity versus the log of the inhibitor concentration using the GraphPad Prism 5.0 software.

BRD4-BD2 = BRD4-BD2 (Homo sapiens (Human), UniProt O60885); assay: BRD4 AlphaScreen assay (BD2); format: binding; conditions: biotin-labeled tetra-acetylated histone H4 peptide, 20 nM BRD4-BD2, read-out: BRD4 BD-2 enzyme IC50
Experimental: as §1

SMILES	IC50 [1]	IC50 (BRD4-BD1)	IC50 (BRD4-BD2)
Cc1noc(C)c1-c1ccc2c(=O)[nH]n3c2c1OCC3c1ccccn1 (centres unmarked) [Example 5, 9-(3,5-Dimethylisoxazol-4-yl)-3-pyridin-2-yl-2,3-dihydro[1,4]oxazino[2,3,4-hi]indazol-6(5H)-one]	≤ 1000 nM	200 to 1000 nM	≤ 200 nM
Cc1noc(C)c1-c1ccc2c(=O)n(C)n3c2c1OCC3c1ccccn1 (centres unmarked) [Example 6, 9-(3,5-Dimethylisoxazol-4-yl)-5-methyl-3-pyridin-2-yl-2,3-dihydro[1,4]oxazino[2,3,4-hi]indazol-6(5H)-one]	≤ 1000 nM	≤ 200 nM	≤ 200 nM
COc1nn2c3c(c(-c4c(C)noc4C)ccc13)OCC2c1ccccn1 (centres unmarked) [Example 7, 9-(3,5-Dimethylisoxazol-4-yl)-6-methoxy-3-pyridin-2-yl-2,3-dihydro[1,4]oxazino[2,3,4-hi]indazole]	≤ 1000 nM	≤ 200 nM	≤ 200 nM
Cc1noc(C)c1-c1ccc2cnn3c2c1OCC3c1ccccn1 (centres unmarked) [Example 8, 9-(3,5-Dimethylisoxazol-4-yl)-3-pyridin-2-yl-2,3-dihydro[1,4]oxazino[2,3,4-hi]indazole trifluoroacetate]	≤ 1000 nM	≤ 200 nM	≤ 200 nM
Cc1noc(C)c1-c1cc(Br)c2cnn3c2c1OCC3c1ccccc1 (centres unmarked) [Example 9, 7-Bromo-9-(3,5-dimethylisoxazol-4-yl)-3-phenyl-2,3-dihydro[1,4]oxazino[2,3,4-hi]indazole]	1000 to 10000 nM	200 to 1000 nM	≤ 200 nM
Cc1noc(C)c1-c1ccc2c(=O)[nH]n3c2c1OCC3c1cccnc1 (centres unmarked) [Example 10, 9-(3,5-Dimethylisoxazol-4-yl)-3-pyridin-3-yl-2,3-dihydro[1,4]oxazino[2,3,4-hi]indazol-6(5H)-one]	1000 to 10000 nM	200 to 1000 nM	≤ 200 nM
Cc1noc(C)c1-c1ccc2c(=O)n(C)n3c2c1OCC3c1cccnc1 (centres unmarked) [Example 11, 9-(3,5-Dimethylisoxazol-4-yl)-5-methyl-3-pyridin-3-yl-2,3-dihydro[1,4]oxazino[2,3,4-hi]indazol-6(5H)-one]	≤ 1000 nM	≤ 200 nM	≤ 200 nM
COc1nn2c3c(c(-c4c(C)noc4C)ccc13)OCC2c1cccnc1 (centres unmarked) [Example 12, 9-(3,5-Dimethylisoxazol-4-yl)-6-methoxy-3-pyridin-3-yl-2,3-dihydro[1,4]oxazino[2,3,4-hi]indazole]	≤ 1000 nM	≤ 200 nM	≤ 200 nM
Cc1noc(C)c1-c1cc(F)c2nnn3c2c1OCC3c1cccnc1 (centres unmarked) [Example 13, 7-(3,5-Dimethylisoxazol-4-yl)-9-fluoro-4-pyridin-3-yl-4,5-dihydro[1,2,3]triazolo[1,5,4-de][1,4]benzoxazine trifluoroacetate]	–	> 1000 nM	200 to 1000 nM

Continued, values first:

IC50 [1]	IC50 (BRD4-BD1)	IC50 (BRD4-BD2)	SMILES
≤ 1000 nM	≤ 200 nM	≤ 200 nM	Cc1noc(C)c1-c1ccc2c(=O)[nH]n3c2c1OCC3c1ccccc1 (centres unmarked) [Example 1, 9-(3,5-Dimethylisoxazol-4-yl)-3-phenyl-2,3-dihydro[1,4]oxazino[2,3,4-hi]indazol-6(5H)-one]
≤ 1000 nM	≤ 200 nM	≤ 200 nM	Cc1noc(C)c1-c1ccc2c(=O)n(C)n3c2c1OCC3c1ccccc1 (centres unmarked) [Example 2, 9-(3,5-Dimethylisoxazol-4-yl)-5-methyl-3-phenyl-2,3-dihydro[1,4]oxazino[2,3,4-hi]indazol-6(5H)-one]
≤ 1000 nM	≤ 200 nM	≤ 200 nM	COc1nn2c3c(c(-c4c(C)noc4C)ccc13)OCC2c1ccccc1 (centres unmarked) [Example 3, 9-(3,5-Dimethylisoxazol-4-yl)-6-methoxy-3-phenyl-2,3-dihydro[1,4]oxazino[2,3,4-hi]indazole]
≤ 1000 nM	≤ 200 nM	≤ 200 nM	Cc1noc(C)c1-c1ccc2cnn3c2c1OCC3c1ccccc1 (centres unmarked) [Example 4, 9-(3,5-Dimethylisoxazol-4-yl)-3-phenyl-2,3-dihydro[1,4]oxazino[2,3,4-hi]indazole]
